# Molecular target: GCN2 (Homo sapiens, UniProt Q9P2K8)
# Assay: GCN2 enzymatic endpoint assay: phosphorylation of GFP-eIF2α measured by TR-FRET (Lanthascreen)
# Assay type: biochemical
# Conditions: GCN2 biochemical IC50; 4 nM GCN2, 2 μM ATP, 80 nM GFP-eIF2α, 90 min RT; read-out: GCN2 activity
# Outline: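 Endpoint GCN2 reaction with low ATP (2 μM) and 80 nM GFP-eIF2α, room temperature, 90 minutes. Detection mix with EDTA and Tb-labelled antibody; 520 nm/495 nm emission ratio reported.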
# Chain of GCN2 (Q9P2K8 whole entry): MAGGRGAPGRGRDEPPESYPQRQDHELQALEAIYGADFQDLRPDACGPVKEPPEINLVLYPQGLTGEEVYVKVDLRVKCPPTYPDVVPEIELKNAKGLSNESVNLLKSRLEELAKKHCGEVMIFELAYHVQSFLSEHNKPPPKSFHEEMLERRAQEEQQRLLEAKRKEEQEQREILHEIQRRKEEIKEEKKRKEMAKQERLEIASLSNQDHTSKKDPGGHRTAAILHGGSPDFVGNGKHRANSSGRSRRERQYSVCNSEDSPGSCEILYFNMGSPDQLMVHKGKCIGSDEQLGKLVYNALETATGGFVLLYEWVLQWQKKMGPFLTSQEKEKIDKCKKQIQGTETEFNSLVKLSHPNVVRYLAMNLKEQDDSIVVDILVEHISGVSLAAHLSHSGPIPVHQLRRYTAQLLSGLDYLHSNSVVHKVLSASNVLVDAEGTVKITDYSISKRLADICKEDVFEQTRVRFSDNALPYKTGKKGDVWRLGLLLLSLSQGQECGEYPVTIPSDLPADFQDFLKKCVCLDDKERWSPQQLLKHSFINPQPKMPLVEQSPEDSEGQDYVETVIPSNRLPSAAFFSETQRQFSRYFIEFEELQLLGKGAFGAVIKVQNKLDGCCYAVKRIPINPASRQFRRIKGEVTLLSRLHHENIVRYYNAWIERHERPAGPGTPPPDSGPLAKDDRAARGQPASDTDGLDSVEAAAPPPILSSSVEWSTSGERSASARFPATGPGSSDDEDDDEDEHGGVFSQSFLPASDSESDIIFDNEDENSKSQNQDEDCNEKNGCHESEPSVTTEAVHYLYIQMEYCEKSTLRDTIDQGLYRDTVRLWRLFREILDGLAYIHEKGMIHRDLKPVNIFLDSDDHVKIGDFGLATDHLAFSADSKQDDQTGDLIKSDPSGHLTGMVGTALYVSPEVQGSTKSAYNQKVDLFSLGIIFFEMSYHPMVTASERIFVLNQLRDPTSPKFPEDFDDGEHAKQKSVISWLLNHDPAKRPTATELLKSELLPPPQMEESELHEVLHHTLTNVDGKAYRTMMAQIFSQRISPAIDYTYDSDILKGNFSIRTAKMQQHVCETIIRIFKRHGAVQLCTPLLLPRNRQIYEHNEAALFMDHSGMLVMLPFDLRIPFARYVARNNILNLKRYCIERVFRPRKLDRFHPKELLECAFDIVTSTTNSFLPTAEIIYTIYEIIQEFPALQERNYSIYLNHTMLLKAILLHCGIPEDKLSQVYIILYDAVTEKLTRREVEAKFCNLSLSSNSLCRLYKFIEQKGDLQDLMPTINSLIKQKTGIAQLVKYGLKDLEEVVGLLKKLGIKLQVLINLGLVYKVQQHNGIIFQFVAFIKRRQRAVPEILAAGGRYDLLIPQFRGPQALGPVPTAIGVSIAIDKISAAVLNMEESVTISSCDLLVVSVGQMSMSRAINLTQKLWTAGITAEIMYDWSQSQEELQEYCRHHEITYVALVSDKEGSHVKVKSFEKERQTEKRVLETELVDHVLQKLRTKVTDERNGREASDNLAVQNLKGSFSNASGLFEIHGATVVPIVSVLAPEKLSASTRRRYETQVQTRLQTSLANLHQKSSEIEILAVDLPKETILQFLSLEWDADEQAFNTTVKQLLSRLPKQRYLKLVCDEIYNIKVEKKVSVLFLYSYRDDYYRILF
row,Compound,IC50 [nM]
1,"CNC(=O)[C@]1(C)CC[C@@H](Nc2ncc3c(Br)nn(-c4cc(Cl)cc(CN)c4)c3n2)C1 [Example 52, (1R,3R)-3-((1-(3-(aminomethyl)-5-chlorophenyl)-3-bromo-1H-pyrazolo[3,4-d]pyrimidin-6-yl)amino)-N,1-dimethylcyclopentane-1-carboxamide; 2,2,2-trifluoroacetic acid]",25 to 200
2,"CNC(=O)C[C@H]1C[C@H](Nc2ncc3c(Br)nn(-c4cc(Cl)cc([C@H](C)N)c4)c3n2)C1 [Example 71, 2-((1S,3r)-3-((1-(3-((S)-1-aminoethyl)-5-chlorophenyl)-3-bromo-1H-pyrazolo[3,4-d]pyrimidin-6-yl)amino)cyclobutyl)-N-methylacetamide]",25 to 200
3,"CN1CCN(C(=O)[C@@H]2CC[C@@H](Nc3ncc4c(Br)nn(-c5ccc(-c6cccnc6)c(F)c5)c4n3)C2)CC1=O [Example 27, 4-((1R,3R)-3-((3-bromo-1-(3-fluoro-4-(pyridin-3-yl)phenyl)-1H-pyrazolo[3,4-d]pyrimidin-6-yl)amino)cyclopentane-1-carbonyl)-1-methylpiperazin-2-one]",500 to 1000

# Same assay, conditions: tested as described in Example 77; compound and/or hydrochloride, dihydrochloride or trifluoroacetic acid salt; read-out: IC 50 Activity
row,Compound,IC50 [nM]
1,"O=C(NCCO)[C@@H]1CC[C@@H](Nc2ncc3c(Br)nn(-c4cc(F)c5ncccc5c4)c3n2)C1 [(1R,3R)-3-((3-bromo-1-(8-fluoroquinolin-6-yl)-1H-pyrazolo[3,4-d]pyrimidin-6-yl)amino)-N-(2-hydroxyethyl)cyclopentane-1-carboxamide]",25 to 200
2,"CNC(=O)[C@]1(C)CC[C@@H](Nc2ncc3c(Br)nn(-c4ccc(-c5nnc(C)s5)c(CCC(=O)O)c4)c3n2)C1 [3-[5-[3-bromo-6-[[(1R,3R)-3-methyl-3-(methylcarbamoyl)cyclopentyl]amino]pyrazolo[3,4-d]pyrimidin-1-yl]-2-(5-methyl-1,3,4-thiadiazol-2-yl)phenyl] propanoic acid]",25 to 200
3,"O=C(N[C@@H]1CCOC1)[C@@H]1CC[C@@H](Nc2ncc3c(Br)nn(-c4ccc5ncccc5c4)c3n2)C1 [(1R,3R)-3-((3-bromo-1-(quinolin-6-yl)-1H-pyrazolo[3,4-d]pyrimidin-6-yl)amino)-N-((R)-tetrahydrofuran-3-yl)cyclopentane-1-carboxamide]",25 to 200
4,"COCCNC(=O)[C@@H]1CC[C@@H](Nc2ncc3c(Br)nn(-c4cncc(OC)c4)c3n2)C1 [(1R,3R)-3-((3-bromo-1-(5-methoxypyridin-3-yl)-1H-pyrazolo[3,4-d]pyrimidin-6-yl)amino)-N-(2-methoxyethyl)cyclopentane-1-carboxamide]",500 to 1000
5,"CNC(=O)[C@]1(C)CC[C@@H](Nc2ncc3c(Br)nn(-c4cc(CO)cc(S(C)(=O)=O)c4)c3n2)C1 [(1R,3R)-3-[[3-bromo-1-[3-(hydroxymethyl)-5-methylsulfonyl-phenyl]pyrazolo[3,4-d]pyrimidin-6-yl]amino]-N,1-dimethyl-cyclo-pentanecarboxamide]",25 to 200
6,"CNC(=O)[C@]1(C)CCC(Nc2ncc3c(Br)nn(-c4ccc5c(c4)CCC(=O)N5)c3n2)C1 (stereo partly drawn) [(1R)-3-[[3-bromo-1-(2-oxo-3,4-dihydro-1H-quinolin-6-yl)pyrazolo[3,4-d]pyrimidin-6-yl]amino]-N,1-dimethyl-cyclopentane-carboxamide]",25 to 200
7,"CNC(=O)[C@]1(C)CC[C@@H](Nc2ncc3c(Br)nn(-c4ccc5c(c4)OC(C)(C)C(=O)N5C)c3n2)C1 [(1R,3R)-3-[[3-bromo-1-(2,2,4-trimethyl-3-oxo-1,4-benzoxazin-7-yl)pyrazolo [3,4-d]pyrimidin-6-yl]amino]-N,1-dimethyl-cyclopentanecarboxamide]",25 to 200
8,"O=C1CN(C(=O)[C@@H]2CC[C@@H](Nc3ncc4c(Br)nn(-c5cc(F)c6ncccc6c5)c4n3)C2)CCN1 [4-((1R,3R)-3-((3-bromo-1-(8-fluoroquinolin-6-yl)-1H-pyrazolo[3,4-d]pyrimidin-6-yl)amino)cyclopentane-1-carbonyl)piperazin-2-one]",25 to 200
9,Cc1nnc(-c2ccc(-n3nc(Br)c4cnc(N[C@@H]5CC[C@@](C)(C(=O)N6CCNCC6)C5)nc43)cc2CCC#N)s1,25 to 200
10,"CNC(=O)[C@]1(C)CC[C@@H](Nc2ncc3c(Br)nn(-c4cc(CCNC(=O)C(C)C)c5ncccc5c4)c3n2)C1 [(1R,3R)-3-[[3-bromo-1-[8-[2-(2-methyl-propanoylamino)ethyl]-6-quinolyl]pyrazolo [3,4-d]pyrimidin-6-yl]amino]-N,1-dimethyl-cyclopentanecarboxamide]",25 to 200
11,"CNC(=O)[C@@]1(C)CC[C@@H](Nc2ncc3c(Br)nn(-c4ccc5nc(OC)ccc5c4)c3n2)C1 [(1S,3R)-3-[[3-bromo-1-(2-methoxy-6-quinolyl)pyrazolo[3,4-d]pyrimidin-6-yl]amino]-N,1-dimethyl-cyclopentane-carboxamide]",< 25
12,"CNC(=O)C1(C)CC[C@@H](Nc2ncc3c(Br)nn(-c4cc(Cl)cc(C(N)=O)c4)c3n2)C1 (stereo partly drawn) [3-[3-bromo-6-[[(1R)-3-methyl-3-(methylcarbamoyl)cyclopentyl]amino]pyrazolo[3,4-d]pyrimidin-1-yl]-5-chloro-benzamide]",< 25
13,CNC(=O)[C@]1(C)CC[C@@H](Nc2ncc3c(Br)nn(-c4ccc5nc(N(C)C)ncc5c4)c3n2)C1,25 to 200
14,"CNC(=O)[C@]1(C)CC[C@@H](Nc2ncc3c(Br)nn(-c4cc(CCNC(C)=O)c5ncccc5c4)c3n2)C1 [(1R,3R)-3-[[1-[8-(2-acetamidoethyl)-6-quinolyl]-3-bromo-pyrazolo[3,4-d]pyrimidin-6-yl]amino]-N,1-dimethyl-cyclopentane-carboxamide]",25 to 200
15,CNC(=O)[C@]1(C)CC[C@@H](Nc2ncc3c(Br)nn(-c4ccc5nc(N6CCN(C(C)=O)CC6)ncc5c4)c3n2)C1,25 to 200
16,"CNC(=O)C1(C)CC[C@@H](Nc2ncc3c(Br)nn(-c4ccc(-c5cnccn5)cc4)c3n2)C1 (stereo partly drawn) [(3R)-3-[[3-bromo-1-(4-pyrazin-2-ylphenyl)pyrazolo[3,4-d]pyrimidin-6-yl]amino]-N,1-dimethyl-cyclopentanecarboxamide]",25 to 200

row,Compound,IC50 [nM]
1,"CNC(=O)[C@]1(C)CC[C@@H](Nc2ncc3c(Br)nn(-c4cc(CN5CCCS5(=O)=O)c5ncccc5c4)c3n2)C1 [(1R,3R)-3-[[3-bromo-1-[8-[(1,1-dioxo-1,2-thiazolidin-2-yl)methyl]-6-quinolyl]pyrazolo[3,4-d]pyrimidin-6-yl]amino]-N,1-dimethyl-cyclopentanecarboxamide]",25 to 200
2,"CNC(=O)[C@]1(C)CCC(Nc2ncc3c(Br)nn(-c4ccc5c(c4)CNC5=O)c3n2)C1 (stereo partly drawn) [(1R)-3-[[3-bromo-1-(1-oxoisoindolin-5-yl)pyrazolo[3,4-d]pyrimidin-6-yl]amino]-N,1-dimethyl-cyclopentanecarboxamide]",25 to 200
3,"CNC(=O)[C@]1(C)CC[C@@H](Nc2ncc3c(Br)nn(-c4ccc(-c5nccs5)cc4)c3n2)C1 [(1R,3R)-3-[[3-bromo-1-(4-thiazol-2-ylphenyl)pyrazolo[3,4-d]pyrimidin-6-yl]amino]-N,1-dimethyl-cyclopentane-carboxamide]",25 to 200
4,"CNC(=O)C1(C)CC[C@@H](Nc2ncc3c(Br)nn(-c4ccc5cnc(OC)cc5c4)c3n2)C1 (stereo partly drawn) [(3R)-3-[[3-bromo-1-(3-methoxy-6-isoquinolyl)pyrazolo[3,4-d]pyrimidin-6-yl]amino]-N,1-dimethyl-cyclopentane-carboxamide]",25 to 200
5,"CNC(=O)[C@]1(C)CC[C@@H](Nc2ncc3c(Br)nn(-c4cnc5c(CCCN)cccc5c4)c3n2)C1 [(1R,3R)-3-[[1-[8-(3-aminopropyl)-3-quinolyl]-3-bromo-pyrazolo[3,4-d]pyrimidin-6-yl]amino]-N,1-dimethyl-cyclopentanecarboxamide]",25 to 200
6,"CNC(=O)[C@@H]1CC[C@@H](Nc2ncc3c(Br)nn(-c4cc(F)c5nc(C)ccc5c4)c3n2)C1 [(1R,3R)-3-((3-bromo-1-(8-fluoro-2-methyl-quinolin-6-yl)-1H-pyrazolo[3,4-d]pyrimidin-6-yl)amino)-N-methylcyclopentane-1-carboxamide]",25 to 200
7,"COCCNC(=O)[C@@H]1CC[C@@H](Nc2ncc3c(Br)nn(-c4ccc(-n5cccn5)cc4)c3n2)C1 [(1R,3R)-3-((1-(4-(1H-pyrazol-1-yl)phenyl)-3-bromo-1H-pyrazolo[3,4-d]pyrimidin-6-yl)amino)-N-(2-methoxyethyl)cyclopentane-1-carboxamide]",200 to 500
8,"CNC(=O)[C@]1(C)CC[C@@H](Nc2ncc3c(Br)nn(-c4ccc(-c5nnc(C)s5)c(OCS(C)(=O)=O)c4)c3n2)C1 [(1R,3R)-3-[[3-bromo-1-[3-(methylsulfonyl-methoxy)-4-(5-methyl-1,3,4-thiadiazol-2-yl)phenyl]pyrazolo[3,4-d]pyrimidin-6-yl]amino]-N,1-dimethyl-cyclopentane-carboxamide]",25 to 200
9,"CNC(=O)[C@]1(C)CC[C@@H](Nc2ncc3c(Br)nn(-c4cc(Cl)cc(NC(=O)C5CNC5)c4)c3n2)C1 [N-[3-[3-bromo-6-[[(1R,3R)-3-methyl-3-(methylcarbamoyl)cyclopentyl]amino]pyrazolo[3,4-d]pyrimidin-1-yl]-5-chloro-phenyl]azetidine-3-carboxamide]",25 to 200
10,CNC(=O)C1(CC(F)(F)F)CC[C@@H](Nc2ncc3c(Br)nn(-c4ccc(-c5nnc(C)s5)c(CCC#N)c4)c3n2)C1 (stereo partly shown),25 to 200
11,CNC(=O)[C@]1(C)CC[C@@H](Nc2ncc3c(Br)nn(-c4cc(Cl)cc(CCS(C)(=O)=O)c4)c3n2)C1,25 to 200
12,"CNC(=O)[C@]1(C)CC[C@@H](Nc2ncc3c(Br)nn(-c4cc(CNS(=O)(=O)C5COC5)c5nccnc5c4)c3n2)C1 [(1R,3R)-3-[[3-bromo-1-[8-[(oxetan-3-ylsulfonylamino)methyl]quinoxalin-6-yl]pyrazolo[3,4-d]pyrimidin-6-yl]amino]-N,1-dimethyl-cyclopentane-carboxamide]",25 to 200
13,Cc1nnc(-c2ccc(-n3nc(Br)c4cnc(N[C@@H]5CC[C@@H](NC(=O)C6CNC6)C5)nc43)cc2)s1,25 to 200
14,CNC(=O)[C@]1(C)CC[C@@H](Nc2ncc3c(Br)nn(-c4cc(C#N)cc(CN)c4)c3n2)C1,25 to 200
15,CNC(=O)[C@]1(C)CC[C@@H](Nc2ncc3c(Br)nn(-c4ccc5nc(NC)ncc5c4)c3n2)C1,25 to 200

# Reference: US11046699B2, “Pyrazolo-pyrimidin-amino-cycloalkyl compounds and their therapeutic uses” (RAPT THERAPEUTICS, INC., priority 2018, dated 2021)
